Data: patent US11254663B2 (BRISTOL-MYERS SQUIBB COMPANY, priority 2019, dated 2022)

target: FXR (Homo sapiens (Human), UniProt Q96RI1); test: FXR EC50 (FXR agonist potency reported with each Example); type: cell-based
Sequence (Q96RI1 262-486): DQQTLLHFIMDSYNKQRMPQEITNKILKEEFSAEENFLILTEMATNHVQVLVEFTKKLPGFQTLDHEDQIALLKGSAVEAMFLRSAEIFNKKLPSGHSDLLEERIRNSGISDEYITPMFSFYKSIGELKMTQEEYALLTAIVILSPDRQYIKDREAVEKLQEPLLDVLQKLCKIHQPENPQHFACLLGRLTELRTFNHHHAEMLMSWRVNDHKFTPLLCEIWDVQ

| Structure (SMILES) | EC50 [nM] |
| --- | --- |
| CCOC(=O)c1coc(-c2cccc(N(CC34CCC(c5nc(C)no5)(CC3)CC4)C(=O)C34CC(F)(C3)C4)c2)n1 [Example 12, Ethyl 2-(3-(3-fluoro-N-((4-(3-methyl-1,2,4-oxadiazol-5-yl)bicyclo[2.2.2]octan-1-yl)methyl)bicyclo[1.1.1]pentane-1-carboxamido)phenyl)oxazole-4-carboxylate] | 1710 |
| O=C(N(CC12CCC(c3nc(C4CC4)no3)(CC1)CC2)c1cccc(-c2noc(C34CC(F)(C3)C4)n2)c1)C12CC(F)(C1)C2 [Example 102, N-((4-(3-cyclopropyl-1,2,4-oxadiazol-5-yl)bicyclo[2.2.2]octan-1-yl)methyl)-3-fluoro-N-(3-(5-(3-fluorobicyclo[1.1.1]pentan-1-yl)-1,2,4-oxadiazol-3-yl)phenyl)bicyclo[1.1.1]pentane-1-carboxamide] | 1040 |
| CC(C)(C)c1noc(C23CCC(CN(C(=O)C45CC(F)(C4)C5)c4cccc(-c5nc(C6CC6)no5)c4)(CC2)CC3)n1 [Example 88, N-((4-(3-(tert-butyl)-1,2,4-oxadiazol-5-yl)bicyclo[2.2.2]octan-1-yl)methyl)-N-(3-(3-cyclopropyl-1,2,4-oxadiazol-5-yl)phenyl)-3-fluorobicyclo[1.1.1]pentane-1-carboxamide] | 86 |
| O=C(N(CC12CCC(c3nc(C4CC4)no3)(CC1)CC2)c1cccc(-c2cnc(C3CC3)o2)c1)C12CC(F)(C1)C2 [Example 23, N-((4-(3-cyclopropyl-1,2,4-oxadiazol-5-yl)bicyclo[2.2.2]octan-1-yl)methyl)-N-(3-(2-cyclopropyloxazol-5-yl)phenyl)-3-fluorobicyclo[1.1.1]pentane-1-carboxamide] | 72 |
| Cc1cnc(C23CCC(CN(C(=O)C45CC(F)(C4)C5)c4cccc(-c5nc(C6CC6)no5)c4)(CC2)CC3)o1 [Example 37, N-(3-(3-cyclopropyl-1,2,4-oxadiazol-5-yl)phenyl)-3-fluoro-N-((4-(5-methyloxazol-2-yl)bicyclo[2.2.2]octan-1-yl)methyl)bicyclo[1.1.1]pentane-1-carboxamide] | 82 |
| COc1cc(-c2cccc(N(CC34CCC(c5nc(C6CCOCC6)no5)(CC3)CC4)C(=O)C34CC(F)(C3)C4)c2)ccn1 [Example 227, 3-Fluoro-N-(3-(2-methoxypyridin-4-yl)phenyl)-N-((4-(3-(tetrahydro-2H-pyran-4-yl)-1,2,4-oxadiazol-5-yl)bicyclo[2.2.2]octan-1-yl)methyl)bicyclo[1.1.1]pentane-1-carboxamide] | 377 |
| O=C(N(CC12CCC(c3nnc(C4CC4)o3)(CC1)CC2)c1cccc(-c2nnc(C3CC3)o2)c1)C12CC(F)(C1)C2 [Example 136, N-((4-(5-cyclopropyl-1,3,4-oxadiazol-2-yl)bicyclo[2.2.2]octan-1-yl)methyl)-N-(3-(5-cyclopropyl-1,3,4-oxadiazol-2-yl)phenyl)-3-fluorobicyclo[1.1.1]pentane-1-carboxamide] | 141 |
| O=C(N(CC12CCC(c3noc(C(F)F)n3)(CC1)CC2)c1cccc(-c2noc(C(F)F)n2)c1)C12CC(F)(C1)C2 [Example 184, N-((4-(5-(difluoromethyl)-1,2,4-oxadiazol-3-yl)bicyclo[2.2.2]octan-1-yl)methyl)-N-(3-(5-(difluoromethyl)-1,2,4-oxadiazol-3-yl)phenyl)-3-fluorobicyclo[1.1.1]pentane-1-carboxamide] | 58 |
| CC1(NC(=O)N(CC23CCC(c4nc(C5CC5)no4)(CC2)CC3)c2cccc(-c3nc(C4CC4)no3)c2)CC1 [Example 94, 1-((4-(3-cyclopropyl-1,2,4-oxadiazol-5-yl)bicyclo[2.2.2]octan-1-yl)methyl)-1-(3-(3-cyclopropyl-1,2,4-oxadiazol-5-yl)phenyl)-3-(1-methylcyclopropyl)urea] | 265 |
| COc1cc(-c2cccc(N(CC34CCC(c5nc(C6CC6)no5)(CC3)CC4)C(=O)C34CC(F)(C3)C4)c2)ccn1 [Example 229, N-((4-(3-cyclopropyl-1,2,4-oxadiazol-5-yl)bicyclo[2.2.2]octan-1-yl)methyl)-3-fluoro-N-(3-(2-methoxypyridin-4-yl)phenyl)bicyclo[1.1.1]pentane-1-carboxamide] | 154 |
| CC1(c2nc(C34CCC(CN(C(=O)C56CC(F)(C5)C6)c5cccc(-c6nc(C7CC7)no6)c5)(CC3)CC4)no2)CC1 [Example 115, N-(3-(3-cyclopropyl-1,2,4-oxadiazol-5-yl)phenyl)-3-fluoro-N-((4-(5-(1-methylcyclopropyl)-1,2,4-oxadiazol-3-yl)bicyclo[2.2.2]octan-1-yl)methyl) bicyclo[1.1.1]pentane-1-carboxamide] | 35 |
| N#CC1(c2ccc(C34CCC(CN(C(=O)C56CC(F)(C5)C6)c5cccc(-c6nc(C7CC7)no6)c5)(CC3)CO4)cc2)CC1 [Example 146, N-((1-(4-(1-cyanocyclopropyl)phenyl)-2-oxabicyclo[2.2.2]octan-4-yl)methyl)-N-(3-(3-cyclopropyl-1,2,4-oxadiazol-5-yl)phenyl)-3-fluorobicyclo[1.1.1]pentane-1-carboxamide] | 334 |
| O=C(C1CCC1)N(CC12CCC(c3nc(CC4CC4)no3)(CC1)CC2)c1cccc(-c2nc(C3CC3)no2)c1 [Example 71, N-(3-(3-cyclopropyl-1,2,4-oxadiazol-5-yl)phenyl)-N-((4-(3-(cyclopropylmethyl)-1,2,4-oxadiazol-5-yl)bicyclo[2.2.2]octan-1-yl)methyl)cyclobutanecarboxamide] | 406 |
| O=C(N(CC12CCC(c3nc(C4CC4)cs3)(CC1)CC2)c1cccc(-c2nc(C3CC3)no2)c1)C12CC(F)(C1)C2 [Example 100, N-(3-(3-cyclopropyl-1,2,4-oxadiazol-5-yl)phenyl)-N-((4-(4-cyclopropylthiazol-2-yl)bicyclo[2.2.2]octan-1-yl)methyl)-3-fluorobicyclo[1.1.1]pentane-1-carboxamide] | 164 |
| O=C(N(CC12CCC(c3nc(C4CC4)no3)(CC1)CC2)c1cccc(-c2nc(C(F)F)co2)c1)C12CC(F)(C1)C2 [Example 40, N-((4-(3-cyclopropyl-1,2,4-oxadiazol-5-yl)bicyclo[2.2.2]octan-1-yl)methyl)-N-(3-(4-(difluoromethyl)oxazol-2-yl)phenyl)-3-fluorobicyclo[1.1.1]pentane-1-carboxamide] | 243 |
| O=C(C1CCC1)N(CC12CCC(c3nc(CC4CC4)no3)(CC1)CC2)c1cccc(-c2nc(CC3CC3)no2)c1 [Example 64, N-((4-(3-(cyclopropylmethyl)-1,2,4-oxadiazol-5-yl)bicyclo[2.2.2]octan-1-yl)methyl)-N-(3-(3-(cyclopropylmethyl)-1,2,4-oxadiazol-5-yl)phenyl)cyclobutanecarboxamide] | 524 |
| O=C(C1CC(C(F)F)C1)N(CC12CCC(c3nnc(C4CC4)o3)(CC1)CC2)c1cccc(-c2nc(C3CC3)no2)c1 (stereo not drawn) [Example 139, N-(3-(3-cyclopropyl-1,2,4-oxadiazol-5-yl)phenyl)-N-((4-(5-cyclopropyl-1,3,4-oxadiazol-2-yl)bicyclo[2.2.2]octan-1-yl)methyl)-3-(difluoromethyl)cyclobutane-1-carboxamide] | 384 |
| CC1(c2nc(-c3cccc(N(CC45CCC(c6noc(C(F)F)n6)(CC4)CC5)C(=O)C45CC(F)(C4)C5)c3)no2)CC1 [Example 178, N-((4-(5-(difluoromethyl)-1,2,4-oxadiazol-3-yl)bicyclo[2.2.2]octan-1-yl)methyl)-3-fluoro-N-(3-(5-(1-methylcyclopropyl)-1,2,4-oxadiazol-3-yl)phenyl)bicyclo[1.1.1]pentane-1-carboxamide] | 73 |
| COc1cc(-c2cccc(N(CC34CCC(c5ccc(C(C)(C)C#N)cc5)(CC3)OC4)C(=O)C34CC(F)(C3)C4)c2)ccn1 [Example 222, N-((1-(4-(2-cyanopropan-2-yl)phenyl)-2-oxabicyclo[2.2.2]octan-4-yl)methyl)-3-fluoro-N-(3-(2-methoxypyridin-4-yl)phenyl)bicyclo[1.1.1]pentane-1-carboxamide] | 285 |
| O=C(N(CC12CCC(c3nc(C4CC4)no3)(CC1)CC2)c1cccc(-c2cnn(CC(F)F)c2)c1)C12CC(F)(C1)C2 [Example 161, N-((4-(3-cyclopropyl-1,2,4-oxadiazol-5-yl)bicyclo[2.2.2]octan-1-yl)methyl)-N-(3-(1-(2,2-difluoroethyl)-1H-pyrazol-4-yl)phenyl)-3-fluorobicyclo[1.1.1]pentane-1-carboxamide] | 96 |
| O=C(N(CC12CCC(c3nc(C4CC4)no3)(CC1)CC2)c1cccc(-c2cnn(-c3cccnc3)c2)c1)C12CC(F)(C1)C2 [Example 152, N-((4-(3-cyclopropyl-1,2,4-oxadiazol-5-yl)bicyclo[2.2.2]octan-1-yl)methyl)-3-fluoro-N-(3-(1-(pyridin-3-yl)-1H-pyrazol-4-yl)phenyl)bicyclo[1.1.1]pentane-1-carboxamide] | 162 |
| Cn1nc(C23CCC(CN(C(=O)C45CC(F)(C4)C5)c4cccc(-c5nc(C6CC6)no5)c4)(CC2)CC3)cc1C1CC1 [Example 124, N-(3-(3-cyclopropyl-1,2,4-oxadiazol-5-yl)phenyl)-N-((4-(5-cyclopropyl-1-methyl-1H-pyrazol-3-yl)bicyclo[2.2.2]octan-1-yl)methyl)-3-fluorobicyclo[1.1.1]pentane-1-carboxamide] | 89 |
| O=C(C1CC(F)(F)C1)N(CC12CCC(c3nc(C4CC4)no3)(CC1)CC2)c1cccc(-c2cnc(C3CCOCC3)o2)c1 [Example 36, N-((4-(3-cyclopropyl-1,2,4-oxadiazol-5-yl)bicyclo[2.2.2]octan-1-yl)methyl)-3,3-difluoro-N-(3-(2-(tetrahydro-2H-pyran-4-yl)oxazol-5-yl)phenyl)cyclobutane-1-carboxamide] | 497 |
| CC(C)c1nc(C23CCC(CN(C(=O)C45CC(F)(C4)C5)c4cccc(-c5nc(C6CC6)no5)c4)(CC2)CC3)no1 [Example 120, N-(3-(3-cyclopropyl-1,2,4-oxadiazol-5-yl)phenyl)-3-fluoro-N-((4-(5-isopropyl-1,2,4-oxadiazol-3-yl)bicyclo[2.2.2]octan-1-yl)methyl)bicyclo[1.1.1]pentane-1-carboxamide] | 15 |
